Data taken from paper PMC8304516, “A Fungal Defensin Targets the SARS−CoV−2 Spike Receptor−Binding Domain” (Journal of Fungi, 2021).
Where two headings read alike, the source gives them in different places. Bridge positions count the residues as written; N and C are the ends. Peptide text beside a SMILES is read from it.

Tests used:
SARS−CoV−2 Spike RBD = SARS−CoV−2 Spike RBD (Severe acute respiratory syndrome coronavirus 2, UniProt P0DTC2); test: biochemical; format: binding
[1] = biological target: SARS-CoV-2 Spike receptor-binding domain (residues N334-P527) (SARS-CoV-2 (isolate Wuhan-Hu-1)) (UniProt P0DTC2); test: MST

CC[C@H](C)[C@@H]1NC(=O)[C@H](CO)NC(=O)[C@H](CC(C)C)NC(=O)[C@@H]2CSSC[C@@H](C(=O)NCC(=O)N[C@@H](CCCCN)C(=O)N[C@@H](CCC(N)=O)C(=O)O)NC(=O)[C@H]([C@@H](C)O)NC(=O)[C@@H]3CSSC[C@H](NC(=O)[C@H](CCC(=O)O)NC(=O)[C@H](CC(N)=O)NC(=O)[C@H](CCCNC(=N)N)NC(=O)[C@H](CC(N)=O)NC(=O)[C@H](Cc4ccccc4)NC(=O)[C@@H]4CCCN4C(=O)[C@@H](NC(=O)CNC(=O)[C@H](Cc4ccccc4)NC(=O)CN)CSSC[C@H](NC(=O)[C@H](Cc4ccccc4)NC(=O)CNC(=O)[C@H](Cc4ccccc4)NC(=O)[C@H](CCCCN)NC(=O)[C@H](CCCNC(=N)N)NC(=O)CNC1=O)C(=O)N[C@@H](C)C(=O)NCC(=O)N1CCC[C@H]1C(=O)N[C@@H](CC(C)C)C(=O)N[C@@H](CCCNC(=N)N)C(=O)N[C@@H](C)C(=O)N[C@@H]([C@@H](C)O)C(=O)N3)C(=O)N[C@@H](Cc1c[nH]cn1)C(=O)N[C@@H](C)C(=O)N[C@@H](Cc1c[nH]cn1)C(=O)N2 [E8R] (H-GFGCPFNRNECHAHCLSIGRKFGFCAGPLRATCTCGKQ-OH; disulfide 4-25, 11-33, 15-35)
Kd (SARS−CoV−2 Spike RBD; KD, SD): 720 ± 220 nM

CC[C@H](C)[C@@H]1NC(=O)[C@H](CO)NC(=O)[C@H](CC(C)C)NC(=O)[C@@H]2CSSC[C@@H](C(=O)NCC(=O)N[C@@H](CCCCN)C(=O)N[C@@H](CCC(N)=O)C(=O)O)NC(=O)[C@H]([C@@H](C)O)NC(=O)[C@@H]3CSSC[C@H](NC(=O)[C@H](CCC(=O)O)NC(=O)[C@H](CC(N)=O)NC(=O)[C@H](CCC(=O)O)NC(=O)[C@H](CC(N)=O)NC(=O)[C@H](Cc4ccccc4)NC(=O)[C@@H]4CCCN4C(=O)[C@@H](NC(=O)CNC(=O)[C@H](Cc4ccccc4)NC(=O)CN)CSSC[C@H](NC(=O)[C@H](Cc4ccccc4)NC(=O)CNC(=O)[C@H](Cc4ccccc4)NC(=O)[C@H](CCCCN)NC(=O)[C@H](CCCNC(=N)N)NC(=O)CNC1=O)C(=O)N[C@@H](C)C(=O)NCC(=O)N1CCC[C@H]1C(=O)N[C@@H](CC(C)C)C(=O)N[C@@H](CCCNC(=N)N)C(=O)N[C@@H](C)C(=O)N[C@@H]([C@@H](C)O)C(=O)N3)C(=O)N[C@@H](Cc1c[nH]cn1)C(=O)N[C@@H](C)C(=O)N[C@@H](Cc1c[nH]cn1)C(=O)N2 [micasin] (H-GFGCPFNENECHAHCLSIGRKFGFCAGPLRATCTCGKQ-OH; disulfide 4-25, 11-33, 15-35)
Kd (SARS−CoV−2 Spike RBD; KD, SD): 5040 ± 960 nM

CC[C@H](C)[C@@H]1NC(=O)[C@H](CO)NC(=O)[C@H](CC(C)C)NC(=O)[C@@H]2CSSC[C@@H](C(=O)NCC(=O)N[C@@H](CCCCN)C(=O)N[C@@H](CCC(N)=O)C(=O)O)NC(=O)[C@H]([C@@H](C)O)NC(=O)[C@@H]3CSSC[C@H](NC(=O)[C@H](CCC(=O)O)NC(=O)[C@H](CC(N)=O)NC(=O)[C@H](CCCNC(=N)N)NC(=O)[C@H](CC(N)=O)NC(=O)[C@H](Cc4ccccc4)NC(=O)[C@@H]4CCCN4C(=O)[C@@H](NC(=O)CNC(=O)[C@H](Cc4ccccc4)NC(=O)CN)CSSC[C@H](NC(=O)[C@H](Cc4ccccc4)NC(=O)CNC(=O)[C@H](Cc4ccccc4)NC(=O)[C@H](CCCCN)NC(=O)[C@H](CCCNC(=N)N)NC(=O)CNC1=O)C(=O)N[C@@H](C)C(=O)NCC(=O)N1CCC[C@H]1C(=O)N[C@@H](CC(C)C)C(=O)N[C@@H](CCCNC(=N)N)C(=O)N[C@@H](C)C(=O)N[C@@H]([C@@H](C)O)C(=O)N3)C(=O)N[C@@H](Cc1c[nH]cn1)C(=O)N[C@@H](C)C(=O)N[C@@H](Cc1c[nH]cn1)C(=O)N2 [rE8R] (H-GFGCPFNRNECHAHCLSIGRKFGFCAGPLRATCTCGKQ-OH; disulfide 4-25, 11-33, 15-35)
Kd (SARS−CoV−2 Spike RBD; n = 2, read-out: KD): 1920 nM

recombinant micasin E8K (peptide)
Kd [1]: 1900 nM
